Data published in patent US20260327204A1, “DEGRADERS OF CYCLIN-DEPENDENT KINASE 12/13, COMPOSITIONS, AND USES THEREOF” (ZHEJIANG UNIVERSITY, priority 2023, published 2026).

Legend:
[1] = biological target: CDK12 (Homo sapiens, UniProt Q9NYV4); experiment: Western blot degradation of CDK12 (Example 3); type: cell-based; design: degradation of CDK12/13 protein in leukemia cells KASUMI-1, MV4-11, and Jurkat; endogenous in cells; conditions: DC50 classes; cell line not given; read-out: CDK12 degradation Activity
Chain of CDK12 (Q9NYV4 whole entry): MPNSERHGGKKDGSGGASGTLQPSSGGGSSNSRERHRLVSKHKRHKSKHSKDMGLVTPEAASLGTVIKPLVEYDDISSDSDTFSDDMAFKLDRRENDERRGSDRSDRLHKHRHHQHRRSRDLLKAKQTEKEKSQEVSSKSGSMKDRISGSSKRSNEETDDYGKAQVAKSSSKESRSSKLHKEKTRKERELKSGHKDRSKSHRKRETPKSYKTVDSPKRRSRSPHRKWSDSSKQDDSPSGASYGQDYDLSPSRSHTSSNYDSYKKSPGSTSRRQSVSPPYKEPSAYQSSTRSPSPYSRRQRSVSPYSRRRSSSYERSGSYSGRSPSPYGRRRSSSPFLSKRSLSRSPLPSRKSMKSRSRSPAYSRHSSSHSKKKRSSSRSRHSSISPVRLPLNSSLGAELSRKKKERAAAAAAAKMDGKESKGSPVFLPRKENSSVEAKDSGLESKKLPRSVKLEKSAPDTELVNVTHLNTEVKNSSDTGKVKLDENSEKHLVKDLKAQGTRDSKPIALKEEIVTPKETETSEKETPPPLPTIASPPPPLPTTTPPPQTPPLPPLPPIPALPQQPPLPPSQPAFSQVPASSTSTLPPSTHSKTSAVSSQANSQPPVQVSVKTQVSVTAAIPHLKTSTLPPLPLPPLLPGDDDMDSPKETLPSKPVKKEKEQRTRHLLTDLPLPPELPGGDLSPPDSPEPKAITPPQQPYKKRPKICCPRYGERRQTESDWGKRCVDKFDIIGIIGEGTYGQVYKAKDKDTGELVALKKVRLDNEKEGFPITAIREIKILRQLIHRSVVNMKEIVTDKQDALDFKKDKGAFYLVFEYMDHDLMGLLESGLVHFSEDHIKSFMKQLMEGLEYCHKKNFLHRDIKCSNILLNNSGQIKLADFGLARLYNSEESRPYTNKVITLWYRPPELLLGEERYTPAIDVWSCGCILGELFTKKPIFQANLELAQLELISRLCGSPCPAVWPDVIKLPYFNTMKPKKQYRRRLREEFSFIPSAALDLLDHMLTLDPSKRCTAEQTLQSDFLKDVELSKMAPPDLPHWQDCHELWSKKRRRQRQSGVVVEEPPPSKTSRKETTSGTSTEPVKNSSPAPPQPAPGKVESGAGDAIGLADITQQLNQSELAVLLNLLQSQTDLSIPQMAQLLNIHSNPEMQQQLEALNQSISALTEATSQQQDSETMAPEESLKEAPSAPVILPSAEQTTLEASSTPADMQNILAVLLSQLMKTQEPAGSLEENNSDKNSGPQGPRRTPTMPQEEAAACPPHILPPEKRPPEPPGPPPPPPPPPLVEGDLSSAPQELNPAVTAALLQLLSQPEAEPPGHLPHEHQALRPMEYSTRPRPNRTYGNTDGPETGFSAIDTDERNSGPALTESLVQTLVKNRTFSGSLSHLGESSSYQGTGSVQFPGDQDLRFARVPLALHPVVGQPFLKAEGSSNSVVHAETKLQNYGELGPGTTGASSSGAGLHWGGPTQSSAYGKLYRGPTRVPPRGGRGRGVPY
Chain of CDK12 (O75909 whole entry partner): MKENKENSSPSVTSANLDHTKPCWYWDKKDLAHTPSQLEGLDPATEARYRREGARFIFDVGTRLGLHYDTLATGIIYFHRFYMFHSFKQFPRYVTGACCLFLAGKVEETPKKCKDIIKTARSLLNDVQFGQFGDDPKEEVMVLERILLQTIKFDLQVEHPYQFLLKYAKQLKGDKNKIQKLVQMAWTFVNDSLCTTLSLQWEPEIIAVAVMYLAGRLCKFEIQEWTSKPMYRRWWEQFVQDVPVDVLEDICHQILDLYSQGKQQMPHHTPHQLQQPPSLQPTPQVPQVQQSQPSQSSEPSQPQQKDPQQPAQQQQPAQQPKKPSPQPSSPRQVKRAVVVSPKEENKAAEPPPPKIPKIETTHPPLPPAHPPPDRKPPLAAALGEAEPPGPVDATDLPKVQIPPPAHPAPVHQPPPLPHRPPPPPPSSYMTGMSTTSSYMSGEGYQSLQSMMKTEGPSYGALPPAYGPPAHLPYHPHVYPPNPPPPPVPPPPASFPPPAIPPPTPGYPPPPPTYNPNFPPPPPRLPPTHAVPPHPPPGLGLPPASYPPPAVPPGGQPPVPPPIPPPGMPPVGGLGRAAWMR

[2] = biological target: CDK13 (Homo sapiens, UniProt Q14004); experiment: Western blot degradation of CDK13 (Example 3); type: cell-based; design: degradation of CDK12/13 protein in leukemia cells KASUMI-1, MV4-11, and Jurkat; endogenous in cells; conditions: DC50 classes; cell line not given; read-out: CDK13 degradation Activity
Chain of CDK13 (Q14004 whole entry): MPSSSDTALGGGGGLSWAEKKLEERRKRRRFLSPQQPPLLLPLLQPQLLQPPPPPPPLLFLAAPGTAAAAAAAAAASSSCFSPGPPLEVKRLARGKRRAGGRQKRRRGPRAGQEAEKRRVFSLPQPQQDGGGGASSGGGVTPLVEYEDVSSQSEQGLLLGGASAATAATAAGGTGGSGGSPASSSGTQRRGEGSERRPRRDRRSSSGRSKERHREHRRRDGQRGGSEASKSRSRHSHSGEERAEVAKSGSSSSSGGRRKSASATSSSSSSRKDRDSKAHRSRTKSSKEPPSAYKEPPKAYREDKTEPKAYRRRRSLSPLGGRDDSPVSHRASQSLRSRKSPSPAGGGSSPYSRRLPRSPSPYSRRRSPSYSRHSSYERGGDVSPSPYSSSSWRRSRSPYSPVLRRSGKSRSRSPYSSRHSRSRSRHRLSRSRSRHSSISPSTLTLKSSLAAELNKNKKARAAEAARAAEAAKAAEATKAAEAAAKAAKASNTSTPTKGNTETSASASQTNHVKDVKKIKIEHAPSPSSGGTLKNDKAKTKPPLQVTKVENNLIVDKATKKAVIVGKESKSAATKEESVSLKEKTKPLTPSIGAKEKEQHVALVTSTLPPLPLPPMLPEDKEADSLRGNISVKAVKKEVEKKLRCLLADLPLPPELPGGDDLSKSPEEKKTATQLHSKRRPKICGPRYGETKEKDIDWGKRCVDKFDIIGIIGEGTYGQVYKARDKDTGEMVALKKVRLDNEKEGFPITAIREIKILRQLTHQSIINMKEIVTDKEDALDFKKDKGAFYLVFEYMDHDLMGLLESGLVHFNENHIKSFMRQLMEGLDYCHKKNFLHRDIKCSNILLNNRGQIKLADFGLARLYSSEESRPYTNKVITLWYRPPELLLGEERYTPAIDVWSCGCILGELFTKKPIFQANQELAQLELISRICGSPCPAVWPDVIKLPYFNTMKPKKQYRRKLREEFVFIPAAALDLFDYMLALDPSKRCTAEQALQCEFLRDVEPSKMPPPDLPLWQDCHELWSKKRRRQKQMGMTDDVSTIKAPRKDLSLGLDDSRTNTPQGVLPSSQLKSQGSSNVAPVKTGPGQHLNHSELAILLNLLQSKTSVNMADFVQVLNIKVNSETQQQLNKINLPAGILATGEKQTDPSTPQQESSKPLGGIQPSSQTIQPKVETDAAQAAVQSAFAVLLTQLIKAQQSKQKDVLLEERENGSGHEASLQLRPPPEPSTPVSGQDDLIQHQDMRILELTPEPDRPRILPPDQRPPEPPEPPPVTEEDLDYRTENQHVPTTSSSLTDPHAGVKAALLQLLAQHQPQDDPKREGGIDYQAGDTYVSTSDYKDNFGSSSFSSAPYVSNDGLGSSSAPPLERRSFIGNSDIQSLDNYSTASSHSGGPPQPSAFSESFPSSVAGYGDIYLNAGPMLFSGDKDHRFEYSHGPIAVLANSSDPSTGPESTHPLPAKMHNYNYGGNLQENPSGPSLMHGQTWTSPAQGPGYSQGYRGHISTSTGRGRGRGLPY
Chain of CDK13 (O75909 whole entry partner): as the sequence (O75909 whole entry partner) above

| Compound | DC50 [1] | DC50 [2] |
| --- | --- | --- |
| CC(=O)N(c1ccc(-c2ccc(N3CCN(c4cc(C(C(=O)N5C[C@H](O)C[C@H]5C(=O)N[C@@H](C)c5ccc(-c6scnc6C)cc5)C(C)C)on4)CC3)nc2)cc1)[C@H]1CC[C@@H](Nc2ncc3ccccc3n2)CC1 (single isomer, unassigned) [Formula 155] | < 100 nM | < 100 nM |
| CC(=O)N(c1ccc(-c2cnc(N3CCN(c4cc(C(C(=O)N5C[C@H](O)C[C@H]5C(=O)N[C@@H](C)c5ccc(-c6scnc6C)cc5)C(C)C)on4)CC3)nc2)cc1)[C@H]1CC[C@@H](Nc2ncc3ccccc3n2)CC1 (single isomer, unassigned) [Formula 156] | < 100 nM | < 100 nM |
| CC(=O)N(c1ccc(-c2cnn(CC3CN(CC(=O)N[C@H](C(=O)N4C[C@H](O)C[C@H]4C(=O)N[C@@H](C)c4ccc(-c5scnc5C)cc4)C(C)(C)C)C3)c2)cc1)[C@H]1CC[C@H](Nc2ncc3ccccc3n2)CC1 (stereo in doubt) [Formula 140, (2S,4R)-1-((R)-3,3-dimethyl-2-(2-(3-((4-(4-(N-((1R,4R)-4-(quinazolin-2-ylamino)cyclohexyl)acetamido)phenyl)-1H-pyrazol-1-yl)methyl)azetidin-1-yl)acetamido)butanoyl)-4-hydroxy-N—((R)-1-(4-(4-methylthiazol-5-yl)phenyl)ethyl)pyrrolidine-2-carboxamide] | 1000 to 3000 nM | 500 to 1000 nM |
| CC(=O)N(c1ccc(N2CCN(C(=O)CNc3ccc4c(c3)C(=O)N(C3CCC(=O)NC3=O)C4=O)CC2)cc1)[C@H]1CC[C@H](Nc2ncc3ccccc3n2)CC1 (stereo partly drawn) [Formula 101, N-(4-(4-((2-(2,6-dioxopiperidin-3-yl)-1,3-dioxoisoindolin-5-yl)aminoacetyl)piperazin-1-yl)phenyl)-N-((1R,4R)-4-(quinazolin-2-ylamino)cyclohexyl)acetamide] | 1000 to 3000 nM | 1000 to 3000 nM |
| CC(=O)N(c1ccc(-c2ccc(CN3CCN(c4ccc5c(c4)C(=O)N(C4CCC(=O)NC4=O)C5=O)CC3)nc2)cc1)[C@H]1CC[C@H](Nc2ncc3ccccc3n2)CC1 (stereo partly drawn) [Formula 102, N-(4-(6-((4-(2-(2,6-dioxopiperidin-3-yl)-1,3-dioxoisoindolin-5-yl)piperazin-1-yl)methyl)pyridin-3-yl)phenyl)-N-((1R,4R)-4-(quinazolin-2-ylamino)cyclohexyl)acetamide] | 500 to 1000 nM | 100 to 500 nM |
| CC(=O)N(c1ccc(N2CCN(c3ccc4c(c3)C(=O)N(C3CCC(=O)NC3=O)C4=O)CC2)cc1)[C@H]1CC[C@H](Nc2ncc3ccccc3n2)CC1 (stereo partly drawn) [Formula 104, N-(4-(4-(2-(2,6-dioxopiperidin-3-yl)-1,3-dioxoisoindolin-5-yl)piperazin-1-yl)phenyl)-N-((1R,4R)-4-(quinazolin-2-ylamino)cyclohexyl)acetamide] | 3000 to 10000 nM | 3000 to 10000 nM |
| CC(=O)N(c1ccc(N2CCN(CC3CCN(c4ccc5c(c4)C(=O)N(C4CCC(=O)NC4=O)C5=O)CC3)CC2)cc1)[C@H]1CC[C@H](Nc2ncc3ccccc3n2)CC1 (stereo partly shown) [Formula 106] | 500 to 1000 nM | 500 to 1000 nM |
| CC(=O)N(c1ccc(-c2cnc(N3CCN(c4ccc5c(c4)C(=O)N(C4CCC(=O)NC4=O)C5=O)CC3)nc2)cc1)[C@H]1CC[C@H](Nc2ncc3ccccc3n2)CC1 (stereo partly shown) [Formula 107] | < 100 nM | < 100 nM |
| CC(=O)N(c1ccc(-c2cnc(OC3CN(c4ccc5c(c4)C(=O)N(C4CCC(=O)NC4=O)C5=O)C3)nc2)cc1)[C@H]1CC[C@H](Nc2ncc3ccccc3n2)CC1 (stereo partly drawn) [Formula 108, N-(4-(2-((1-(2-(2,6-dioxopiperidin-3-yl)-1,3-dioxoisoindolin-5-yl)azetidin-3-yl)oxy)pyrimidin-5-yl)phenyl)-N-((1R,4R)-4-(quinazolin-2-ylamino)cyclohexyl)acetamide] | 100 to 500 nM | 100 to 500 nM |
| CC(=O)N(c1ccc(-c2cnc(O[C@@H]3CCN(c4ccc5c(c4)C(=O)N(C4CCC(=O)NC4=O)C5=O)C3)nc2)cc1)[C@H]1CC[C@H](Nc2ncc3ccccc3n2)CC1 (stereo partly drawn) [Formula 109, N-(4-(2-(((3R)-1-(2-(2,6-dioxopiperidin-3-yl)-1,3-dioxoisoindolin-5-yl)pyrrolidin-3-yl)oxy)pyrimidin-5-yl)phenyl)-N-((1R,4R)-4-(quinazolin-2-ylamino)cyclohexyl)acetamide] | 100 to 500 nM | 100 to 500 nM |
| CC(=O)N(c1ccc(-c2cnc(O[C@H]3CCN(c4ccc5c(c4)C(=O)N(C4CCC(=O)NC4=O)C5=O)C3)nc2)cc1)[C@H]1CC[C@H](Nc2ncc3ccccc3n2)CC1 (stereo partly drawn) [Formula 110, N-(4-(2-(((3S)-1-(2-(2,6-dioxopiperidin-3-yl)-1,3-dioxoisoindolin-5-yl)pyrrolidin-3-yl)oxy)pyrimidin-5-yl)phenyl)-N-((1R,4R)-4-(quinazolin-2-ylamino)cyclohexyl)acetamide] | 1000 to 3000 nM | 500 to 1000 nM |
| CC(=O)N(c1ccc(-c2ccn(CC3CCN(c4ccc5c(c4)C(=O)N(C4CCC(=O)NC4=O)C5=O)CC3)c(=O)c2)cc1)[C@H]1CC[C@H](Nc2ncc3ccccc3n2)CC1 (stereo partly drawn) [Formula 111, N-(4-(1-((1-(2-(2,6-dioxopiperidin-3-yl)-1,3-dioxoisoindolin-5-yl)piperidin-4-yl)methyl)-2-oxo-1,2-dihydropyridin-4-yl)phenyl)-N-((1R,4R)-4-(quinazolin-2-ylamino)cyclohexyl)acetamide] | 1000 to 3000 nM | 1000 to 3000 nM |
| CC(=O)N(c1ccc(-c2ccn(CC3CN(c4ccc5c(c4)C(=O)N(C4CCC(=O)NC4=O)C5=O)C3)c(=O)c2)cc1)[C@H]1CC[C@H](Nc2ncc3ccccc3n2)CC1 (stereo partly drawn) [Formula 112, N-(4-(1-((1-(2-(2,6-dioxopiperidin-3-yl)-1,3-dioxoisoindolin-5-yl)azetidin-3-yl)methyl)-2-oxo-1,2-dihydropyridin-4-yl)phenyl)-N-((1R,4R)-4-(quinazolin-2-ylamino)cyclohexyl)acetamide] | 100 to 500 nM | 100 to 500 nM |
| CC(=O)N(c1ccc(-c2cnn(C3CN(c4ccc5c(c4)C(=O)N(C4CCC(=O)NC4=O)C5=O)C3)c2)cc1)[C@H]1CC[C@H](Nc2ncc3ccccc3n2)CC1 (stereo partly drawn) [Formula 113, N-(4-(1-(1-(2-(2,6-dioxopiperidin-3-yl)-1,3-dioxoisoindolin-5-yl)azetidin-3-yl)-1H-pyrazol-4-yl)phenyl)-N-((1R,4R)-4-(quinazolin-2-ylamino)cyclohexyl)acetamide] | 3000 to 10000 nM | 3000 to 10000 nM |
| CC(=O)N(c1ccc(-c2cnc(N3CCN(c4cc5c(cc4F)C(=O)N(C4CCC(=O)NC4=O)C5=O)CC3)nc2)cc1)[C@H]1CC[C@H](Nc2ncc3ccccc3n2)CC1 (stereo partly drawn) [Formula 114, N-(4-(2-(4-(2-(2,6-dioxopiperidin-3-yl)-6-fluoro-1,3-dioxoisoindolin-5-yl)piperazin-1-yl)pyrimidin-5-yl)phenyl)-N-((1R,4R)-4-(quinazolin-2-ylamino)cyclohexyl)acetamide] | 1000 to 3000 nM | 1000 to 3000 nM |
| CC(=O)N(c1ccc(N2CCC3(CC2)CCN(c2ccc4c(c2)C(=O)N(C2CCC(=O)NC2=O)C4=O)C3)cc1)[C@H]1CC[C@H](Nc2ncc3ccccc3n2)CC1 (stereo partly drawn) [Formula 119, N-(4-(2-(2-(2,6-dioxopiperidin-3-yl)-1,3-dioxoisoindolin-5-yl)-2,8-diazaspiro[4.5]decan-8-yl)phenyl)-N-((1R,4R)-4-(quinazolin-2-ylamino)cyclohexyl)acetamide] | 1000 to 3000 nM |  |
